Experimental data reported in patent US20050192279A1, “Pyridazinones as antagonists of alpha4 integrins” (priority 2004, published 2005).

Tests used:
human α4β7 integrin = molecular target: T1, human α4β7 integrin (Homo sapiens, UniProt P13612+P26010); experiment: α4β7-K562 Cell Adhesion Assay (α4β7 Mediated Adhesion/MAdCAM-1); type: cell-based; conditions: α4β7-K562 cell adhesion to hMAdCAM-1; read-out: α4β7 IC50
T1 construct: expressed in transfected cells; host or cells: K562 cells, stably transfected
T1 sequence (P13612 34-1032): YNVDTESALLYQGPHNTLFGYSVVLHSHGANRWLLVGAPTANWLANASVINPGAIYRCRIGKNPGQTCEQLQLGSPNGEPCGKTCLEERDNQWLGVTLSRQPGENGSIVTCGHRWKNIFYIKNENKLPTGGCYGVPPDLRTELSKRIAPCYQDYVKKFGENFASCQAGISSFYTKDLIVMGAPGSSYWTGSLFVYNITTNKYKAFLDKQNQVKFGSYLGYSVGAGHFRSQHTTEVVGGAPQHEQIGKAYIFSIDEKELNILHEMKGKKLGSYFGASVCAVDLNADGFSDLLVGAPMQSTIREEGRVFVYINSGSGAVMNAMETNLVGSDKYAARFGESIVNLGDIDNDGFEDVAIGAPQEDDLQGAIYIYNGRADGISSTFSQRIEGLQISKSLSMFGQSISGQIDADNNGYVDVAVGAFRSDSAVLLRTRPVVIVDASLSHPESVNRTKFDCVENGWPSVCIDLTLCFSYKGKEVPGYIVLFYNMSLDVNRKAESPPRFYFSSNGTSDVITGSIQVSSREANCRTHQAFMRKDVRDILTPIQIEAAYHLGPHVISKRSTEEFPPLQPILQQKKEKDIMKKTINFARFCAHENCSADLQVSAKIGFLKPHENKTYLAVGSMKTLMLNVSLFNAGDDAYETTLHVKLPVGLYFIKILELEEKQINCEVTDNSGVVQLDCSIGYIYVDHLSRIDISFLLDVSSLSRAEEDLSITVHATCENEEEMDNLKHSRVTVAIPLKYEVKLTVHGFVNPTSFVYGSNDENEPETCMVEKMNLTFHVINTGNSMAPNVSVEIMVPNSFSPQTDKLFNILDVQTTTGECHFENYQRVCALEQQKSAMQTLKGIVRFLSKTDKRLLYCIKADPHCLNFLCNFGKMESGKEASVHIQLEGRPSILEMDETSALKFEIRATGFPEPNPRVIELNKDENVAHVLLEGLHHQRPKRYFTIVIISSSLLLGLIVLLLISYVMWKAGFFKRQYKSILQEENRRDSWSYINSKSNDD
T1 sequence (P26010 20-798): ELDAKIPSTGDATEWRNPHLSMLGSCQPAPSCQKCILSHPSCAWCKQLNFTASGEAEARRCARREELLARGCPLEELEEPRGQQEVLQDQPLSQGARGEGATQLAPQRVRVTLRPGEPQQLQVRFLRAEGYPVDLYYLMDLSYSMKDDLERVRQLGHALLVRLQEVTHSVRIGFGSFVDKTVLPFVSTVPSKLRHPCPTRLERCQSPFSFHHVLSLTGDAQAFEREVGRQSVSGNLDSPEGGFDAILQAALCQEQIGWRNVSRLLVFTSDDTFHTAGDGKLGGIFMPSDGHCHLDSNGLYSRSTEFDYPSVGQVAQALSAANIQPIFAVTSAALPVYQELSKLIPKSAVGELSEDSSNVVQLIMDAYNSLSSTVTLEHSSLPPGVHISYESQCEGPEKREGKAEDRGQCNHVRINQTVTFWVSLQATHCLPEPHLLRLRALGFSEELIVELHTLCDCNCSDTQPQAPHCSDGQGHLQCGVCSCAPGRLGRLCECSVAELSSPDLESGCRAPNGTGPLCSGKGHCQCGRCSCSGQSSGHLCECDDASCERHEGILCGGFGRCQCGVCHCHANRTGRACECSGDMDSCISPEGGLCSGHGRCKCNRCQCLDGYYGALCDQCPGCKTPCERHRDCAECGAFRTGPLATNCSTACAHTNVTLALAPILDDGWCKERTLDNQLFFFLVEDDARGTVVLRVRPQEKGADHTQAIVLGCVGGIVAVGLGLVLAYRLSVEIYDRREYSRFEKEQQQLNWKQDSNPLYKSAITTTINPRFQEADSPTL
Method: α4β7-K562 Cell Adhesion Assay (α4β7 Mediated Adhesion/MAdCAM-1)
M2 anti-FLAG Antibody Coated 96-well plates (Sigma) were coated for 1 hour at 4° C. with 2-8 μl/well recombinant FLAG-hMAdCAM-1 contained in 100 μL of Dulbecco's PBS, pH 7.4, with 1% BSA and 1 mM Mn ^+2 (PBS-BSA-Mn). Plates were washed once with PBS-BSA-Mn. Buffer was removed and compounds to be tested (50 μL) were added at 2× concentration. Stably transfected K562 cells expressing human α4β7 integrin, (50 μL at 2×10^6/mL) that had been labeled with 100 μg/ml carboxymethyl fluorescein diacetate succinimidyl ester (CFDA-SE; Molecular Probes) for 15 min at 37° C. were added to each well and allowed to adhere for 1 h at room temperature. Plates were washed 4× in PBS-BSA-Mn and then cells were lysed for 2 minutes by addtion of 100 μL of PBS without Ca, Mg supplemented with 0.1 M NaOH.

α4β1 = molecular target: T2, α4β1 (Homo sapiens, UniProt P05556+P13612); experiment: Ramos Cell Adhesion Assay (α4β1 Mediated Adhesion/VCAM-1); type: cell-based; conditions: Ramos cell adhesion to hVCAM-1; read-out: α4β1 IC50
T2 construct: Ramos Cell Adhesion Assay (α4β1 Mediated Adhesion/VCAM-1); endogenous in cells; host or cells: Ramos cells
T2 sequence (P05556 21-798, one chain of several): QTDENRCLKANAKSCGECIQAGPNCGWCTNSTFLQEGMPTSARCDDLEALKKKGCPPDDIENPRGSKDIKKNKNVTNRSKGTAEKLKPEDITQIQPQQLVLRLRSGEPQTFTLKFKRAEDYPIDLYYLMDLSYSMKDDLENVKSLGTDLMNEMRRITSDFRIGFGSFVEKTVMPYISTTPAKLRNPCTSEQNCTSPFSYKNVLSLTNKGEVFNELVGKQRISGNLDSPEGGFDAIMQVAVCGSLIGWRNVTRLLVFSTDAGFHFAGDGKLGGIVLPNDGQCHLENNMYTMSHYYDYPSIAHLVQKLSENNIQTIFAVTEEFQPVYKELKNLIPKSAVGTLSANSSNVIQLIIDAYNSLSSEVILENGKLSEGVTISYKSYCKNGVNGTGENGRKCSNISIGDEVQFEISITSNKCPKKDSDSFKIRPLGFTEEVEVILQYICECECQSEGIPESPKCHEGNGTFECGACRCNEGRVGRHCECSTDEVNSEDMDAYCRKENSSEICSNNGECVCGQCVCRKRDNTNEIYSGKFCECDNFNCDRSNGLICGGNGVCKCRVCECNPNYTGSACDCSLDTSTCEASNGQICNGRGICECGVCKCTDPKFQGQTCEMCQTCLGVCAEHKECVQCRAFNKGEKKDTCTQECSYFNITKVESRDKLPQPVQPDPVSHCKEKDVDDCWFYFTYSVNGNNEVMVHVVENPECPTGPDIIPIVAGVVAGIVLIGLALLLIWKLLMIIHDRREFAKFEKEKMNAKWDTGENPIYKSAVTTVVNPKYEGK
Method: Ramos Cell Adhesion Assay (α4β1 Mediated Adhesion/VCAM-1)
Immulon 96 well plates (Dynex) were coated with 100 μL recombinant hVCAM-1 at 4.0 μg/mL in 0.05 M NaCO3 buffer pH 9.0 overnight at 4° C. (R&D Systems). Plates were washed 2 times in PBS with 1% BSA and blocked for 1 h @ room temperature in this buffer. PBS was removed and compounds to be tested (50 μL) were added at 2× concentration. Ramos cells, (50 μL at 2×10^6/mL) labeled with 5 μM Calcein AM (Molecular Probes) for 1 h at 37° C., were added to each well and allowed to adhere for 1 h at room temperature. Plates were washed 4× in PBS+1% BSA and cells were lysed for 15 minutes in 100 μL of 1 M Tris pH 8.0 with 1% SDS.

SMILES	IC50 (human α4β7 integrin)	IC50 (α4β1)
COc1cnn(C)c(=O)c1-c1ccc(C[C@H](NC(=O)C(C(C)C)n2c(C)ccc2C)C(=O)O)cc1 (mixture of isomers) [Cpd 33, 2-[2(2,5-Dimethyl-pyrrol-1-yl)-3-methyl-butyrylamino]-3-[4-(5-methoxy-2-methyl-3-oxo-2,3-dihydro-pyridazin-4-yl)-phenyl]-propionic acid]	7 nM	2400 nM
COc1cnn(C)c(=O)c1-c1ccc(C[C@H](NC(=O)C(c2ccccc2)C(C)C)C(=O)O)cc1 (mixture of isomers) [Cpd 57]	18 nM	1220 nM
COc1cnn(C)c(=O)c1-c1ccc(CC(NC(=O)C(NC(=O)OC(C)(C)C)C(C)C)C(=O)O)cc1 (mixture of isomers) [Cpd 58]	18 nM	> 5000 nM
COc1cnn(C)c(=O)c1-c1ccc(C[C@H](NC(=O)C(NS(=O)(=O)c2ccccc2[N+](=O)[O-])C(C)C)C(=O)O)cc1 (mixture of isomers) [Cpd 77]	36 nM	240 nM
COc1cnn(C)c(=O)c1-c1ccc(CC(NC(=O)C2CCCN2)C(=O)O)cc1 (mixture of isomers) [Cpd 166]	478 nM	> 5000 nM
COc1cnn(C)c(=O)c1-c1ccc(CC(NC(=O)C2CCCN2C(=O)OC(C)(C)C)C(=O)O)cc1 (mixture of isomers) [Cpd 195]	1280 nM	> 5000 nM
CNC(C(=O)NC(Cc1ccc(-c2c(OC)cnn(C)c2=O)cc1)C(=O)O)C(C)C (single isomer, unassigned) [Cpd 54]	17 nM	4020 nM
CNC(C(=O)NC(Cc1ccc(-c2c(OC)cnn(C)c2=O)cc1)C(=O)O)C(C)C (single isomer, unassigned) [Cpd 123]	118 nM	> 5000 nM
CCOC(=O)[C@H](Cc1ccc(-c2c(OC)cnn(C)c2=O)cc1)NC(=O)c1c(Cl)cccc1Cl [Cpd 1]	–	> 5000 nM
COc1cnn(C)c(=O)c1-c1ccc(C[C@H](NC(=O)C2(NC(C)C)CC2)C(=O)O)cc1 [Cpd 3]	–	> 5000 nM
CCOc1cnn(C)c(=O)c1-c1ccc(C[C@H](NC(=O)c2c(Cl)cccc2Cl)C(=O)O)cc1 [Cpd 4]	1 nM	168 nM
Cn1nc2c(c(-c3ccc(C[C@H](NC(=O)c4c(Cl)cccc4Cl)C(=O)O)cc3)c1=O)OCCO2 [Cpd 6, (S)-2-(2,6-Dichloro-benzoylamino)-3-[4-(2-methyl-3-oxo-2,3,6,7-tetrahydro-[1,4]dioxino[2,3-c]pyridazin-4-yl)-phenyl]-propionic acid]	1 nM	49 nM
Cn1ncc(OCCOCCO)c(-c2ccc(C[C@H](NC(=O)c3c(Cl)cccc3Cl)C(=O)O)cc2)c1=O [Cpd 7]	2 nM	192 nM
Cn1ncc(OCCO)c(-c2ccc(C[C@H](NC(=O)c3c(Cl)cccc3Cl)C(=O)O)cc2)c1=O [Cpd 8]	2 nM	303 nM
COc1cnn(C)c(=O)c1-c1ccc(C[C@H](NC(=O)c2c(Cl)c[n+]([O-])cc2Cl)C(=O)O)cc1 [Cpd 9]	2 nM	23 nM
CN1CCC(Oc2cnn(C)c(=O)c2-c2ccc(C[C@H](NC(=O)c3c(Cl)cccc3Cl)C(=O)O)cc2)C1 (stereo partly drawn) [Cpd 12]	2 nM	305 nM

SMILES	IC50 (human α4β7 integrin)	IC50 (α4β1)
Cn1nc2c(c(-c3ccc(C[C@H](NC(=O)c4c(Cl)cccc4Cl)C(=O)O)cc3)c1=O)NCCO2 [Cpd 13, (S)-2-(2,6-Dichloro-benzoylamino)-3-[4-(2-methyl-3-oxo-3,5,6,7-tetrahydro-2H-pyridazino[3,4-b][1,4]oxazin-4-yl)-phenyl]-propionic acid]	2 nM	130 nM
COc1cnn(C)c(=O)c1-c1ccc(C[C@H](NC(=O)[C@@H](C(C)C)N(C)C(=O)Cc2ccsc2)C(=O)O)cc1 [Cpd 19]	3 nM	44 nM
Cn1ncc(N2CCOCC2)c(-c2ccc(C[C@H](NC(=O)c3c(Cl)cccc3Cl)C(=O)O)cc2)c1=O [Cpd 20]	3 nM	484 nM
Cn1ncc(OCCN2CCOCC2)c(-c2ccc(C[C@H](NC(=O)c3c(Cl)cccc3Cl)C(=O)O)cc2)c1=O [Cpd 21]	3 nM	65 nM
O=C(N[C@@H](Cc1ccc(-c2c(OCCN3CCOCC3)cnn(CCO)c2=O)cc1)C(=O)O)c1c(Cl)cccc1Cl [Cpd 22]	3 nM	376 nM
CN1CCC(Oc2cnn(CCO)c(=O)c2-c2ccc(C[C@H](NC(=O)c3c(Cl)cccc3Cl)C(=O)O)cc2)CC1 [Cpd 23]	3 nM	248 nM
CC(C)Oc1cnn(CCO)c(=O)c1-c1ccc(C[C@H](NC(=O)c2c(Cl)cccc2Cl)C(=O)O)cc1 [Cpd 24]	4 nM	249 nM
Cn1ncc(OCc2cccnc2)c(-c2ccc(C[C@H](NC(=O)c3c(Cl)cccc3Cl)C(=O)O)cc2)c1=O [Cpd 25]	5 nM	133 nM
COc1cnn(C)c(=O)c1-c1ccc(C[C@H](NC(=O)[C@H](NC2CCCCC2)C(C)C)C(=O)O)cc1 [Cpd 28]	5 nM	2620 nM
CCn1ncc(N2CCOCC2)c(-c2ccc(C[C@H](NC(=O)c3c(Cl)cccc3Cl)C(=O)O)cc2)c1=O [Cpd 29]	6 nM	> 1000 nM
COc1cnn(C)c(=O)c1-c1ccc(C[C@H](NC(=O)c2c(Cl)cccc2Cl)C(=O)OCCN(C)C)cc1 [Cpd 34]	8 nM	250 nM
COc1cnn(C)c(=O)c1-c1ccc(C[C@H](NC(=O)C2(NC(C)C)CC2)C(=O)O)cc1 [Cpd 146]	–	218 nM
COc1cnn(C2CCCCC2)c(=O)c1-c1ccc(C[C@H](NC(=O)c2c(Cl)cccc2Cl)C(=O)O)cc1 [Cpd 165]	471 nM	–
COC(=O)N[C@@H](Cc1ccc(-c2c(OC)cnn(C)c2=O)cc1)C(=O)O [Cpd 178]	706 nM	–
COc1cnn(C)c(=O)c1-c1ccc(C[C@H](NC(=O)OC(C)(C)C)C(=O)O)cc1 [Cpd 183]	805 nM	–
COc1cnn(C)c(=O)c1-c1ccc(C[C@H](NC(=O)C2(OCc3ccccc3)CC2)C(=O)O)cc1 [Cpd 230]	92 nM	–
